Laboratory results from patent US20240116985A1, “STAPLED PEPTIDES AND METHODS THEREOF” (priority 2020, published 2024).
≈ marks a conversion by molar mass, not a printed value. Like-named read-outs stand apart in the source and are kept apart here.

What was measured:
[1] = molecular target: T1, full-length beta-Catenin (Uniprot ID P35222) (Homo sapiens, UniProt P35222); assay: Fluorescence polarization IC50 (beta-catenin / 5FAM-TCF4 10-53 competition); assay type: binding; settings: fluorescence polarization
T1 construct: 10 nM full-length beta-Catenin (Uniprot ID P35222)
T1 sequence (P35222 1-781): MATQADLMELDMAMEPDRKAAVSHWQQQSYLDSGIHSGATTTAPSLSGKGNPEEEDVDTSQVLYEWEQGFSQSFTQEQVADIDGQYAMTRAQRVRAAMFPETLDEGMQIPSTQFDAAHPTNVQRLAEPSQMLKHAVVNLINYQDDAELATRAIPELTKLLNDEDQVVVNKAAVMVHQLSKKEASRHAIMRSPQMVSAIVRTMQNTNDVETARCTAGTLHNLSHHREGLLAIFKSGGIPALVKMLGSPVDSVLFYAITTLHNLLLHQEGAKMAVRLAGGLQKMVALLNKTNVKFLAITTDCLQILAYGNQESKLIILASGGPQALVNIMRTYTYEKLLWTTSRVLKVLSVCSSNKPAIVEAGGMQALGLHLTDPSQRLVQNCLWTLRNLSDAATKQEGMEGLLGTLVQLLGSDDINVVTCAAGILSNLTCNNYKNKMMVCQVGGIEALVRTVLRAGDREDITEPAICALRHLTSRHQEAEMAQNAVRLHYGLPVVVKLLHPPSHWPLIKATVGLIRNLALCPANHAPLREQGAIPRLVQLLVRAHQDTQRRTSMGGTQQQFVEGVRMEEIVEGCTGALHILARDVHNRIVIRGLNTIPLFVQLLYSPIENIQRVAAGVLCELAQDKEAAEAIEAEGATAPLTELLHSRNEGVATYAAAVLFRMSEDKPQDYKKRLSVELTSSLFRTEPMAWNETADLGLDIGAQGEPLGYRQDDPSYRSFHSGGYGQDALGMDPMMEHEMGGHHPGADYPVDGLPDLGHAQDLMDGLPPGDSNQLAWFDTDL

Solubility in PBS = assay type: physicochemical
Method in brief: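 Steps: ultracentrifuge the peptide PBS solution, inject the supernatant on HPLC, inject a 50 μM peptide DMSO solution as reference, then calculate solubility as area ratio (PBS/DMSO) × 50 uM.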

[2] = beta-catenin, read-out: FP EC50

Row | SMILES | IC50 [1, 2] [nM] | IC50 ([1]; read-out: beta-Catenin FP IC50) [nM] | Solubility (Solubility in PBS) [µM] | Solubility (Solubility in PBS; Solubility (uM)) [µM]
1 | CC(=O)N1CCC[C@H]1C(=O)N[C@@H](CC(=O)O)C(=O)N[C@@H](CC(C)(C)C)C(=O)N[C@]1(C)CCCC=CCCCOC(=O)N2CC[C@@](C(=O)N[C@@H](Cc3ccsc3)C(=O)N[C@@H](Cc3csc4ccccc34)C(=O)N[C@@H](CCC(N)=O)C(N)=O)(C2)NC(=O)[C@H](CC(N)=O)NC(=O)[C@H](Cc2ccccc2)NC(=O)[C@H](C)NC(=O)[C@H](C)NC(=O)[C@H](CC(=O)O)NC(=O)[C@H](CC(=O)O)NC1=O [I-1182, Ac-Pro-Asp-Npg-R5-Asp-Asp-Ala-Ala-Phe-Asn-PyrS2-3Thi-BztA-Gln-NH2] |  | 144 |  | 48 (≈ 88.9 µg/mL)
2 | CC(=O)N1CCC[C@H]1C(=O)N[C@@H](CC(=O)O)C(=O)N[C@@H](CC(C)(C)C)C(=O)N[C@]1(C)CCCC=CCCCOC(=O)N2CC[C@@](C(=O)N[C@@H](Cc3ccccc3Cl)C(=O)N[C@@H](Cc3csc4ccccc34)C(=O)N[C@@H](CCC(N)=O)C(N)=O)(C2)NC(=O)[C@H](CC(N)=O)NC(=O)[C@H](Cc2ccccc2)NC(=O)[C@H](C)NC(=O)[C@H](C)NC(=O)[C@H](CC(=O)O)NC(=O)[C@H](CC(=O)O)NC1=O [I-1183, Ac-Pro-Asp-Npg-R5-Asp-Asp-Ala-Ala-Phe-Asn-PyrS2-2C1F-BztA-Gln-NH2] |  | 409 | 50 (≈ 94 µg/mL) | 
3 | CC(=O)N1CCC[C@H]1C(=O)N[C@@H](CC(=O)O)C(=O)N[C@@H](CC1CCCCC1)C(=O)N[C@]1(C)CCCC=CCCCOC(=O)N2CC[C@@](C(=O)N[C@@H](Cc3ccccc3Cl)C(=O)N[C@@H](Cc3csc4ccccc34)C(=O)N[C@@H](CO)C(N)=O)(C2)NC(=O)[C@H]([C@@H](C)O)NC(=O)[C@H](Cc2ccccc2)NC(=O)[C@H](C)NC(=O)[C@H](C)NC(=O)[C@H](CC(=O)O)NC(=O)[C@H](CC(=O)O)NC1=O [I-1184, Ac-Pro-Asp-Cha-R5-Asp-Asp-Ala-Ala-Phe-Thr-PyrS2-2C1F-BztA-Ser-NH2] |  | 176 |  | 45 (≈ 83.4 µg/mL)

Now from value to compound:

Row | IC50 [1, 2] [nM] | IC50 ([1]; read-out: beta-Catenin FP IC50) [nM] | Solubility (Solubility in PBS) [µM] | Solubility (Solubility in PBS; Solubility (uM)) [µM] | SMILES
4 | 346 | 346 | 44 (≈ 85.6 µg/mL) |  | CC(=O)N1CCC[C@]12CC=CCCCC1(CCCC=CCCCOC(=O)N3CC[C@@](C(=O)N[C@@H](Cc4ccsc4)C(=O)N[C@@H](Cc4csc5ccccc45)C(=O)N[C@@H](CCC(N)=O)C(N)=O)(C3)NC(=O)[C@H](CC(C)C)NC(=O)[C@H](Cc3ccccc3)NC(=O)C(C)(C)NC(=O)C(C)(C)NC(=O)[C@H](CC(=O)O)NC(=O)[C@H](CC(=O)O)NC1=O)NC(=O)[C@H](CC(C)(C)C)NC(=O)[C@H](CC(=O)O)NC2=O (stereo partly drawn) [I-1179, Ac-PL3-Asp-Npg-B5-Asp-Asp-Aib-Aib-Phe-Leu-PyrS2-3Thi-BztA-Gln-NH2]
5 | 87 | 87 | 31 (≈ 60.3 µg/mL) |  | CC(=O)N1CCC[C@]12CC=CCCCC1(CCCC=CCCCOC(=O)N3CC[C@@](C(=O)N[C@@H](Cc4ccsc4)C(=O)N[C@@H](Cc4csc5ccccc45)C(=O)N[C@@H](CCC(N)=O)C(N)=O)(C3)NC(=O)[C@H](CC(C)C)NC(=O)[C@H](Cc3ccccc3)NC(=O)C(C)(C)NC(=O)C(C)(C)NC(=O)[C@H](CC(=O)O)NC(=O)[C@H](CC(=O)O)NC1=O)NC(=O)[C@H](CC(C)(C)C)NC(=O)[C@H](CC(=O)O)NC2=O (stereo partly drawn) [I-1180, Ac-PL3-Asp-Npg-B5-Asp-Asp-Aib-Aib-Phe-Leu-PyrS2-3Thi-BztA-Gln-NH2]
6 |  | 94.5 | 10 (≈ 18.6 µg/mL) |  | CC(=O)N1CCC[C@]12CC=CCCCC1(CCCC=CCCCCCC[C@@](C)(C(=O)N[C@@H](Cc3ccccc3Cl)C(=O)N[C@@H](Cc3csc4ccccc34)C(=O)N[C@@H](CO)C(N)=O)NC(=O)[C@H](CC(C)C)NC(=O)[C@H](Cc3ccccc3)NC(=O)[C@H](C)NC(=O)[C@H](C)NC(=O)[C@H](CC(=O)O)NC(=O)[C@H](CC(=O)O)NC1=O)NC(=O)[C@H](CC(C)(C)C)NC(=O)[C@H](CC(=O)O)NC2=O (stereo partly drawn) [I-1189, Ac-PL3-Asp-Npg-B5-Asp-Asp-Ala-Ala-Phe-Leu-S8-2C1F-BztA-Ser-NH2]
